Test systems include A498 renal; IGROV1 ovarian; K-562 leukemia; OVCAR-3 ovarian; OVCAR-8 ovarian; SF-268 CNS; SN12C renal; SR leukemia; SW-620 colon; T-47D breast.
Holding throughout (assay): NCI tumour cell line growth inhibition, 48 h

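1) Cells in 96-well plates. 2) Compound, 48 h, 5 concentrations. 3) Linear interpolation between surrounding doses. 4) Unreached endpoint = highest concentration. GI50 marks 50% less growth. At the TGI there is no net growth.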

For the compound `O=C(O)/C(Cc1ccnc2ccccc12)=N\O`, the TGI in the assay with A498 renal, in the assay with IGROV1 ovarian, in the assay on K-562 leukemia, with OVCAR-3 ovarian, with OVCAR-8 ovarian and in the assay on SF-268 CNS was > 100 µM each time. Further, the TGI in the assay with SN12C renal, with SR leukemia, with SW-620 colon and in the assay on T-47D breast was > 100 µM throughout.

`COc1cc(C2C3=C(COC3=O)N(CCO)c3cc4c(cc32)OCCO4)cc(OC)c1OC` (stereo not drawn): the GI50 in the assay with A498 renal was 0.14 µM; in the assay on IGROV1 ovarian, 0.165 µM; in the assay with K-562 leukemia it was 0.177 µM; with OVCAR-3 ovarian, 0.135 µM; in the assay with OVCAR-8 ovarian it was 0.24 µM; in the assay on SF-268 CNS, 0.374 µM. Besides, the GI50 in the assay on SR leukemia is 0.166 µM; in the assay on SW-620 colon, 0.226 µM; in the assay on T-47D breast, 0.287 µM. In addition, the TGI in the assay with A498 renal was 0.441 µM; with IGROV1 ovarian, 0.898 µM; in the assay with K-562 leukemia it was > 50 µM; in the assay on OVCAR-3 ovarian, 0.315 µM; in the assay with OVCAR-8 ovarian, > 50 µM; in the assay on SF-268 CNS it was > 50 µM. Also, the TGI with SN12C renal, in the assay with SW-620 colon and in the assay on T-47D breast was > 50 µM throughout.

Take `O=C1/C(=C/c2ccc(F)cc2)CN(C(=O)CCN2CCC(=NO)CC2)C/C1=C\c1ccc(F)cc1`: the GI50 was 1.31 µM in the assay with A498 renal; 1.43 µM with IGROV1 ovarian; 0.408 µM with K-562 leukemia; 1.14 µM with OVCAR-3 ovarian; 1.3 µM in the assay on OVCAR-8 ovarian; 2.02 µM with SF-268 CNS. Also, the GI50 in the assay on SN12C renal was 1.2 µM; in the assay with SR leukemia, 0.197 µM; in the assay on SW-620 colon, 0.375 µM; with T-47D breast, 2.56 µM. The TGI is 2.63 µM with A498 renal; 3.42 µM in the assay on IGROV1 ovarian; > 49.7 µM with K-562 leukemia; 3.02 µM in the assay on OVCAR-3 ovarian; 5.58 µM in the assay on OVCAR-8 ovarian; 5.46 µM in the assay on SF-268 CNS. Besides, the TGI with SN12C renal was 3.64 µM; with SR leukemia it was > 100 µM; with SW-620 colon it was 1.07 µM; with T-47D breast it was 9.55 µM.

As to `CS(=O)(=O)OCCCNCCCOS(C)(=O)=O`, the TGI with A498 renal was found to be 3630 µM; in the assay on IGROV1 ovarian, 7300 µM; in the assay on K-562 leukemia, 9080 µM; with OVCAR-3 ovarian, 7600 µM; with OVCAR-8 ovarian, 6630 µM; in the assay with SF-268 CNS, 7620 µM. Besides, the TGI was 3830 µM in the assay on SN12C renal, 2970 µM in the assay on SR leukemia, 6720 µM in the assay with SW-620 colon and 6740 µM in the assay with T-47D breast.

Consider `CC(=O)N1CCN(CCNC(=O)n2cc(-c3ccncc3)c(-c3cc(O)cc(Cl)c3)n2)CC1`, for which the GI50 was 11.7 µM in the assay with A498 renal; 18.5 µM with IGROV1 ovarian; 4.41 µM in the assay with K-562 leukemia; 17.3 µM in the assay with OVCAR-3 ovarian; 12.2 µM in the assay with OVCAR-8 ovarian; 14.6 µM in the assay on SF-268 CNS. In addition, the GI50 was 13.7 µM in the assay on SN12C renal, 4.78 µM in the assay with SR leukemia, 10.9 µM in the assay on SW-620 colon and 16.6 µM in the assay on T-47D breast. Further, the TGI is 28.3 µM in the assay with A498 renal; 55.1 µM in the assay on IGROV1 ovarian; 29.4 µM with K-562 leukemia; 46.5 µM in the assay with OVCAR-3 ovarian; > 100 µM with OVCAR-8 ovarian; 35.2 µM in the assay on SF-268 CNS. Moreover, the TGI in the assay on SN12C renal was 46.2 µM; in the assay with SR leukemia it was 22.5 µM; with SW-620 colon, 26.9 µM; in the assay with T-47D breast, 49.2 µM.

On to `CCN(CC)CCCC(C)Nc1cc(-c2cccc(OC(F)(F)F)c2)nc2ccc(N3CCCC3)cc12` (stereo not drawn), for which the GI50 in the assay with A498 renal was 0.0301 µM; in the assay with IGROV1 ovarian it was 0.0941 µM; with K-562 leukemia it was 0.0391 µM; with OVCAR-3 ovarian, 0.0305 µM; in the assay on OVCAR-8 ovarian, 0.0626 µM; in the assay on SF-268 CNS, 0.196 µM. Moreover, the GI50 with SN12C renal is 0.124 µM; in the assay with SR leukemia, 0.0365 µM; in the assay on SW-620 colon it was 0.0433 µM; in the assay on T-47D breast it was 0.0542 µM. Moreover, the TGI was 3.03 µM in the assay with A498 renal; > 100 µM with IGROV1 ovarian; > 100 µM with K-562 leukemia; 0.382 µM in the assay with OVCAR-3 ovarian; 34.3 µM in the assay with OVCAR-8 ovarian; 19.8 µM in the assay with SF-268 CNS. Also, the TGI in the assay on SN12C renal is 16.1 µM; with SR leukemia it was > 100 µM; in the assay with SW-620 colon, > 100 µM; in the assay with T-47D breast, > 100 µM.

For the compound `COc1ccc(/C=C/c2c(C(=O)/C=C/c3ccc(C(F)(F)F)cc3)c(C)nc3ccccc23)cc1`, the GI50 in the assay on A498 renal is 1.77 µM; with IGROV1 ovarian, 0.466 µM; in the assay on K-562 leukemia it was 2.05 µM; with OVCAR-3 ovarian it was 1.64 µM; with OVCAR-8 ovarian it was 2.22 µM; in the assay on SF-268 CNS, 1.8 µM. Besides, the GI50 in the assay with SN12C renal was 2.02 µM; in the assay with SR leukemia it was 0.599 µM; in the assay on SW-620 colon it was 1.48 µM; in the assay with T-47D breast it was 1.31 µM. For the same compound, the TGI was 3.24 µM in the assay with A498 renal; 2.39 µM in the assay with IGROV1 ovarian; > 100 µM in the assay with K-562 leukemia; 3.48 µM in the assay on OVCAR-3 ovarian; > 100 µM in the assay with OVCAR-8 ovarian; 3.67 µM in the assay with SF-268 CNS. In addition, the TGI was 5.66 µM in the assay with SN12C renal, > 100 µM in the assay on SR leukemia, 4.7 µM in the assay on SW-620 colon and 3.78 µM in the assay with T-47D breast.

As for `C1CN(c2nnc(N3CCC3)nn2)C1`, the TGI in the assay on A498 renal is > 100 µM; in the assay with IGROV1 ovarian, > 100 µM; with K-562 leukemia it was > 31.6 µM; with OVCAR-3 ovarian, > 100 µM; in the assay on OVCAR-8 ovarian, > 100 µM; with SF-268 CNS, > 100 µM. Also, the TGI with SN12C renal is 65.8 µM; in the assay with SR leukemia, > 100 µM; with SW-620 colon, 59 µM; with T-47D breast, > 100 µM.

In the case of `c1ccc(OCCC[P+](c2ccccc2)(c2ccccc2)c2ccccc2)cc1`, the GI50 was 1.94 µM in the assay with A498 renal; 1.42 µM in the assay on IGROV1 ovarian; 0.634 µM in the assay with K-562 leukemia; 1.12 µM in the assay with OVCAR-3 ovarian; 1.83 µM in the assay on OVCAR-8 ovarian; 3.82 µM in the assay on SF-268 CNS. In addition, the GI50 is 2.61 µM in the assay on SN12C renal, 0.646 µM with SR leukemia, 2.22 µM with SW-620 colon and 0.383 µM with T-47D breast. Also, the TGI in the assay with A498 renal is 7.97 µM; with IGROV1 ovarian it was 17.4 µM; with K-562 leukemia, 16.3 µM; with OVCAR-3 ovarian it was 19.4 µM; with OVCAR-8 ovarian, 12.8 µM; with SF-268 CNS, 19.2 µM. The TGI in the assay with SN12C renal was 12.5 µM; in the assay with SR leukemia it was 11.4 µM; with SW-620 colon it was > 100 µM; in the assay on T-47D breast, 29.5 µM.

These data come from PubChem BioAssay (NCI).
